Where a name gives a salt, the structure may show the parent alone.

Data set [1] concerns 1205Lu melanoma cell line. Description: MTS cell viability assay, 1205Lu. The format is cell-based. The conditions noted are these: Homo sapiens; 1205Lu melanoma; 24 hours treatment; MTS; read-out: IC50, 1205Lu (Table I). A general note: Tetrazolium dyes change colour on reduction, which living cells bring about.
Procedure: Cellular viability compared to control treated cells is measured using the MTS assay (Promega, Madison, Wis.).
Data set [2] relates to OVCAR-3 ovarian carcinoma cells. Description: MTS cell viability assay, OVCAR-3. Type of data set: cell-based, human.
Procedure: (§2) Growth inhibitory effects on cultured cells from human vertical growth phase (VGP) melanoma cell line WM115, Lung adenocarcinoma (A549), fibrosarcoma (HT-1080), prostate adenocarcinoma (PC-3), ovarian carcinoma (OVCAR-3), and breast adenocarcinoma (MDA-MB-231) are plated in 96 well plates at a density of 5×10^3 cells/well in 100 μl media. […] Dose response curves for each compound are generated and the IC50 values (μM) determined using GraphPad Prism software. Each experiment is replicated at least 3 times and the average IC50 (μM) values with standard error represented.
Data set [3] deals with A549, Caco-2, HT-1080, PC-3, OVCAR-3, MDA-MB-231, WM115. Description: MTS viability, all cancer cell lines tested (summary). Type of data set: cell-based, human.
Procedure: as §2
Data set [4] deals with normal human fibroblast FF2441 and UACC 903 cells. Description: Sensitivity of melanoma cells compared to normal cells. Type of data set: cell-based. Particulars: FF2441 vs UACC 903; 2, 4, 6, 12 and 24 hours. From the text: Sensitivity of melanoma cells to PBISe is compared to normal cells. […] Thus, cultured cancer cells are 2-5 fold more sensitive to PBISe than normal cells.

Data set [5] deals with UACC 903 melanoma cells. Description: Apoptosis, Apo-ONE caspase-3/7 assay. The format is cell-based. As for the experimental part:
[…] Proliferation and apoptosis rates are measured using a BrdU ELISA kit (Roche Applied Sciences, Indianapolis, Ind.) and Apo-ONE Homogenous caspase-3/7 Assay kit (Promega, Madison, Wis.), respectively, (Madhunapantula S V, et al., Cancer Res 2007; 67:3626-36).

In data set [6] the test system is 1205 Lu melanoma tumors. Description: Tumorigenicity assessment, 1205 Lu xenograft, i.p. treatment. Type of data set: in vivo, nude mice. Particulars: day 24; i.p. 0.315 μmoles (2.5 ppm selenium) Monday, Wednesday, Friday for 3 weeks. The procedure:
(§1) Tumor kinetics are measured by subcutaneous injection of 5×10^6 UACC 903 or 2.5×10^61205 Lu cells in 0.2 ml of DMEM containing 10% FBS above left and right rib cages of 4-6 week old female nude mice (Harlan Sprague Dawley, Indianapolis, Ind.). Six days later, a fully vascularized tumor has developed and mice are randomly placed in control DMSO or experimental (PBIT or PBISe) groups (n=5 animals; 10 tumors total) followed by i.p. treatment with PBIT ([…]) or PBISe ([…]; equivalent to 2.5 ppm selenium per 20 g mouse) on Monday, Wednesday and Friday for 3 weeks. Dimensions of developing tumors and body weight are measured.

Data set [7] concerns UACC 903 melanoma tumors. Description: Tumorigenicity assessment, UACC 903 xenograft, i.p. treatment. Type of data set: in vivo, nude mice. Particulars: day 24; i.p. 0.315 moles (2.5 ppm selenium) Monday, Wednesday, Friday for 3 weeks. As for the experimental part: as §1
The nature of data set [8]: Systemic toxicity assessment, i.p. treatment. Type of data set: in vivo. The conditions noted are these: nude mice, 3 weeks. As for the experimental part:
as §1
Systemic toxicity of PBISe in animals is evaluated in nude mice. Mice are exposed to PBISe or PBIT ([…]), or vehicle DMSO, 3 times per week and animals weighed to ascertain possible toxicity. 4-6 week old female nude mice (Harlan Sprague Dawley, Indianapolis, Ind.) are injected i. p. with either control DMSO vehicle, PBIT or PBISe (0.315 μmoles each) for 3 weeks by following the regime used for tumorigenicity. Blood is then collected from each animal in plasma separator tubes with lithium heparin (BD Microtainer, BD, Franklin Lakes, N.J.) following cardiac puncture and analyzed for SGOT, SGPT, alkaline phosphatase, glucose and creatinine to ascertain liver, heart, kidney and pancreas related toxicity. For morphological examination of blood cells, whole blood is collected in microtainer tubes containing K2EDTA (BD Microtainer, BD, Franklin Lakes, N.J.) and RBC, WBC, lymphocytes, monocytes, eosinophils, platelets, total hemoglobin and hematocrit percentage analyzed. Blood is also microscopically examined for segregates, polychromatin bodies, and smudge cells. A portion of vital organs—liver, heart, kidney, intestine, pancreas and adrenal—from each animal is formalin fixed and paraffin-embedded to examine for toxicity-associated changes in cell morphology and organization following H&E staining. […] Thus, PBISe treatment has negligible associated systemic toxicity at the concentrations examined.

The test system of data set [9] is UACC 903 tumors. Description: Apoptosis and proliferation rates in size and time matched tumors. Type of data set: in vivo, nude mice. Particulars: day 15, i.p. on alternate days.
Procedure: For mechanistic studies, 5×10^6 UACC 903 cells are injected subcutaneously into nude mice generating tumors of the same size developing at parallel time points. 6-days later mice are treated i.p. with DMSO vehicle, PBIT or PBISe (0.315 moles each) on alternate days up to day 15. Size and time matched tumors are harvested at days 9, 11, 13, and 15 to assess changes in cell proliferation and apoptosis. […] Protein concentration is quantitated using Bio-Rad protein assay reagent (Bio-Rad laboratories, Hercules, Calif.) and analyzed by Western blotting.
For caspase-3/7 activity determination, 100 μg of protein lysate is incubated with a Rhodamine-110 conjugated caspase-3/7 substrate (Z-DEVD) for 1-2 hours and fluorescence (485 nm excitation and 520 nm emission) measured in a SPECTRAmax M2 plate reader. […] A minimum of 6 different tumors with 4-6 fields per tumor is analyzed and results represented as the average±SEM. […]
Data set [10] has as its system WM35-GFP and UACC 903-GFP melanoma tumors in reconstructed skin. Description: Topical treatment of skin reconstructs containing melanoma cells. Type of data set: cell-based, human. The conditions noted are these: 8 days. As for the experimental part:
Generation of skin containing melanocytic lesions is briefly described. […] Mixture is then aliquoted into 6 or 12 well plates and incubated at 37° C. for 3 hours. […] One milliliter of cell suspension is added to each well on top of the dermal layer. Following two days growth, reconstructed skin is transferred onto wire grids and fed via diffusion from E-media below the platforms.
Skin reconstructs containing melanoma cells are treated topically with increasing concentrations (5, 10, 15 and 20 μM in 200 μL PBS) of PBIT or PBISe. Eight days later control vehicle PBS treated, PBIT and PBISe exposed skins are fixed in paraformaldehyde and stored in 0.5% EDTA.
Beginning on day 8 of culture, the reconstructed skins containing melanoma tumors are treated with increasing concentrations of PBISe (5, 10, 15 and 20 μM) or PBIT (15 and 20 μM) in 200 μL of vehicle PBS for 8 days and the size of developing tumors, in terms of area occupied by GFP, is measured using fluorescence microscopy.

Consider `N=C(N)[Se]CCc1ccc(CC[Se]C(=N)N)cc1` [PBISe, s,s′-1,4-phenylene-bis(1,2-ethanediyl)bis-isoselenourea dihydrobromide], for which the IC50 in data set [1] was 9.8 ± 0.7 µM; in data set [2] (Homo sapiens, OVCAR-3, 24 h, read-out: Inhibition Cancer Cells IC50, OVCAR-3 (Table III)), 5.3 ± 0.65 µM; in data set [3] (Homo sapiens, read-out: concentration decreasing cell viability by 50% (IC50), cancer cell lines of Table III), 8 to 10 µM. In data set [2] (ratio of IC50 PBIT/PBISe, OVCAR-3), the “Fold increase in efficacy (PBIT/PBISe), OVCAR-3” value is recorded as over 18.9 fold. Moreover, in data set [3] (A549, Caco-2, HT-1080, PC-3, OVCAR-3, MDA-MB-231, WM115), the “fold more potent at decreasing cell viability compared to PBIT, all cancer cell lines tested” value is on record as over 10 fold. Moreover, in [4], the “fold higher concentrations required to kill fibroblasts compared to melanoma cells” value is 2-5 fold. Also, the caspase-3/7 activity result in [5] (UACC 903, increasing concentrations up to 10.5 μM, 24 hours, compared to PBIT) is given as “elevated”. Besides, the “cell death at higher doses” value in [5] (doses higher than 10.5 μM) is given as over 80%. Further, the “difference in tumor volume compared to control DMSO or PBIT, 1205 Lu” value in [6] is reported as about 50%. In addition, the “difference in tumor volume compared to control DMSO or PBIT, UACC 903” value in data set [7] was about 30%. Further, the “blood parameters (SGOT, SGPT, alkaline phosphatase, blood urea, glucose and creatinine)” value in [8] (i.p. 0.315 μmoles) is reported as “did not detect significant liver, kidney or cardiac related toxicity”. The “histological examination of H&E stained vital organ sections” value in [8] (i.p. 0.315 μmoles) was “did not significantly change cell morphology or organ structure”. Further, the “body weight during treatment” value in data set [8] (i.p. 3 times per week) is “No significant difference”. The “caspase-3/7 activity in tumors versus PBIT or DMSO vehicle” value in [9] was 2 fold. For the same molecule, the “morphology of constituent cells of skin reconstructs” value in [10] (20 uM topical, H&E) is on record as “no toxicity”. In addition, the “difference in tumor size compared to vehicle PBS control and PBIT treated skins” value in [10] (15 and 20 μM, topical, area occupied by GFP, WM35 and UACC 903) was 80-90%.

These data come from patent publication US8772274B1, “Anti-cancer compositions and methods” (The Penn State Research Foundation, priority 2008, dated 2014).
